Source: US8940909B2, “Indicator platform” (Biosynth AG, priority 2009, dated 2015)

Experiments:
[1] = tested on: beta-galactosidase positive Eschericha coli (NM1); assay: IO staining of bacterial colonies on Nutrient Agar (color, fluorescence, localization, growth); for C: Color of colonies (strength): key: −: absent; +/−: weak; +: strong; ++: very strong; for F: Fluorescence of colonies (strength): key: −: absent; +/−: weak; +: strong; ++: very strong; for G: Growth of colonies: key: −: absent; +/−: weak; +: strong; ++: very strong; for L: Localization of stain on colonies: key: −: absent; +/−: weak; +: strong; ++: very strong; format: cell-based, E. coli; details: 150 mg/l substrate and 100 mg/l IPTG; for C: Color of colonies (colour of stain) / C: Color of colonies (strength): 24 h on Nutrient Agar; for G: Growth of colonies / L: Localization of stain on colonies / F: Fluorescence of colonies (strength) / C: Color of colonies (strength): E. coli; for G: Growth of colonies / L: Localization of stain on colonies / F: Fluorescence of colonies (strength) / F: Fluorescence of colonies (colour): 24 h; for F: Fluorescence of colonies (strength) / F: Fluorescence of colonies (colour): 366 nm UV
Description: (§1) Nutrient Agar (5 g/l peptone, 5 g/l NaCl, 2 g/l yeast extract, 1 g/l beef extract, 13 g/l agar, pH 7.4) was autoclaved and allowed to cool to 50° C. Then indicators were added to final concentrations of 150 mg/l (from a 20 mg/ml stock solution in DMF).
(§2) Optionally IPTG was added to 100 mg/l (from a 100 mg/ml stock solution in H2O) and plates were poured. Agar plates were inoculated with cultures of beta-galactosidase positive Eschericha coli (NM1) or beta-galactosidase negative Salmonella enteritidis (RKI 05/07992) (pre-grown on nutrient broth for 8-18 hours) and incubated at 37° C. Plates were inspected at 16, 20, 24 and 48 hours and pictures were recorded at 18, 24, and 48 hours with a Digistore 2 Image documentation system (CAMAG) under white light.
(§3) A considerable number of indicators molecules (Table IVa, IVb) and a selection of labile groups (Table IVc) were tested with various microbial species producing different biomarker enzymes (external stimuli, eS). The color of stains ranges from yellow to red.
(§4) Plating media from Example 10 were examined under 366 nm UV irradiation at 16, 20, 24 and 48 hours for fluorescence by means of Digistore 2 Image documentation system (CAMAG). Loops of bacterial cells, grown for 48 hours on Nutrient Agar plates containing 150 mg/l beta-D-galactosidase indicator and 100 mg/l IPTG, were directly streaked into wells of black clear bottom microtiter plates. Fluorescence scans were recorded on a Spectramax M5 (Molecular Devices).

[2] = tested on: beta-galactosidase negative Salmonella enteritidis (RKI 05/07992); format: cell-based; details: S. enteritidis (b-gal negative), 24 h, 150 mg/l substrate and 100 mg/l IPTG; for F: Fluorescence of colonies (strength): 366 nm UV; for all read-outs here: key: −: absent; +/−: weak; +: strong; ++: very strong
Description: as §1, §2, §3, §4

Compound	C: Color of colonies (colour of stain) [1]	G: Growth of colonies [1]	L: Localization of stain on colonies [1]	F: Fluorescence of colonies (strength) [1]	C: Color of colonies (strength) [1]	C: Color of colonies (strength) [2]	F: Fluorescence of colonies (strength) [2]	F: Fluorescence of colonies (colour) [1]
O=Cc1ccccc1-n1cc(O[C@@H]2O[C@H](CO)[C@H](O)[C@H](O)[C@H]2O)c2ccccc21 [Indicator I13a, 1-(2-Formylphenyl)-1H-indol-3-yl-beta-D-galactopyranoside]	cream-orange	+	+	−	+/−	−	−	
CC(=O)c1ccccc1-n1cc(O[C@@H]2O[C@H](CO)[C@H](O)[C@H](O)[C@H]2O)c2ccccc21 [Indicator I14a, 1-(2-Acetylphenyl)-1H-indol-3-yl-beta-D-galactopyranoside]	light yellow	+	+	−	+	−	−	
CC(=O)c1ccccc1-n1cc(O[C@@H]2O[C@H](CO)[C@H](O)[C@H](O)[C@H]2O)c2c(Cl)c(Br)ccc21 [Indicator I17a, 1-(2-Acetylphenyl)-5-bromo-4-chloro-1H-indol-3-yl-beta-D-galactopyranoside]	yellow-orange	+	+	−	+	−	−	
COc1ccc(C(C)=O)c(-n2cc(O[C@@H]3O[C@H](CO)[C@H](O)[C@H](O)[C@H]3O)c3ccc(Cl)cc32)c1 [Indicator I18a, 1-(2-Acetyl-5-methoxyphenyl)-6-chloro-1H-indol-3-yl-beta-D-galactopyranoside]	light yellow	+	+/−	+/−	+	−	−	green
O=C(c1ccccc1)c1ccccc1-n1cc(O[C@@H]2O[C@H](CO)[C@H](O)[C@H](O)[C@H]2O)c2ccccc21 [Indicator I19a, 1-(2-Benzoylphenyl)-1H-indol-3-yl-beta-D-galactopyranoside]	yellow-orange	+	+	+	+	−	−	yellow
O=C(c1ccccc1)c1ccccc1-n1cc(O[C@@H]2O[C@H](CO)[C@H](O)[C@H](O)[C@H]2O)c2c(Cl)cccc21 [Indicator I20a, 1-(2-Benzoylphenyl)-4-chloro-1H-indol-3-yl-beta-D-galactopyranoside]	orange	+	cryst.	+/−	+/−	−	−	orange
COc1ccc(C(=O)c2ccccc2)c(-n2cc(O[C@@H]3O[C@H](CO)[C@H](O)[C@H](O)[C@H]3O)c3ccc(Cl)cc32)c1 [Indicator I24a, 1-(2-Benzoyl-5-methoxyphenyl)-6-chloro-1H-indol-3-yl-beta-D-galactopyranoside]	dark yellow	+	+/−	+	+	−	−	yellow-green
COc1ccc(C(=O)c2ccccc2-n2cc(O[C@@H]3O[C@H](CO)[C@H](O)[C@H](O)[C@H]3O)c3c(Cl)cccc32)c(OC)c1 [Indicator I26a, 4-Chloro-1-[2-(2,4-dimethoxybenzoyl)phenyl]-1H-indol-3-yl-beta-D-galactopyranoside]	yellow-orange	+	+	+/−	+	−	−	orange
O=C(O)c1ccc(C(=O)c2ccccc2-n2cc(O[C@@H]3O[C@H](CO)[C@H](O)[C@H](O)[C@H]3O)c3ccc(Cl)cc32)o1 [Indicator I29a, 1-[2-(5-Carboxylfuranoyl)phenyl]-6-chloro-1H-indol-3-yl-beta-D-galactopyranoside]	red	+	−	−	+	−	−	
O=C(c1ccco1)c1ccccc1-n1cc(O[C@@H]2O[C@H](CO)[C@H](O)[C@H](O)[C@H]2O)c2ccc(Cl)cc21 [Indicator I30a, 6-Chloro-1-(2-furanoylphenyl)-1H-indol-3-yl-beta-D-galactopyranoside]	dark orange	+	+/−	+/−	++	−	−	orange-red
